Measurements published in patent publication US6583137B1, “Protease inhibitors” (SmithKline Beecham Corporation, priority 1999, dated 2003).

Assay: Chiral / configurational stability at the carbon alpha to the ketone
Type: physicochemical

configurational stability at the carbon center alpha to the ketone (compared to the corresponding 5 and 6 membered ring compounds): configurationally more stable
chiral stability (compared to the protonated isomer): superior chiral stability
SMILES: [2H]C1(NC(=O)[C@H](CC(C)C)NC(=O)c2cnc3ccccc3n2)CCCN(S(=O)(=O)c2cccc[n+]2[O-])C([2H])([2H])C1=O (stereo partly drawn) [present compound, quinoxaline-2-carboxylic acid {(S)-3-methyl-1-[(2,2′,4-trideuterio)-3-oxo-1-(1-oxy-pyridine-2-sulfonyl)-azepan-4-ylcarbamoyl]-butyl}amide]
